Reference: patent publication US20040077650A1, “Cannabinoid receptor ligands and uses thereof” (Pfizer Inc., priority 2002, published 2004)

Molecular target: T1, CB-1 receptor (Rattus norvegicus, UniProt P20272)
T1 construct: tissue Pel Freeze Biologicals, Rogers, Ark; host or cells: rat brain membrane homogenate
Test: CB-1 receptor binding assay ([3H]SR141716A displacement)
Conditions: inhibition of [3H] SR141716A binding, rat brain tissue, 20° C. for 60 minutes
Procedure: The following assays were designed to detect compounds that inhibit the binding of [3H] SR141716A (selective CB-1 radiolabeled ligand) and [3H] 5-(1,1-dimethyl-heptyl)-2-[5-hydroxy-2-(3-hydroxy-propyl)-cyclohexyl]-phenol (CB-1/CB-2 radiolabeled ligand) to their respective receptors.
PelFreeze brains (available from Pel Freeze Biologicals, Rogers, Ark.) were cut up and placed in tissue preparation buffer (5 mM Tris HCl, pH=7.4 and 2 mM EDTA), polytroned at high speed and kept on ice for 15 minutes. The homogenate was then spun at 1,000×g for 5 minutes at 4° C. The supernatant was recovered and centrifuged at 100,000×G for 1 hour at 4° C. The pellet was then re-suspended in 25 ml of TME ([…] Tris, pH=7.4, 5 mM MgCl2, and 1 mM EDTA) per brain used. A protein assay was performed and 200 μl of tissue totaling 20 μg was added to the assay.
The test compounds were diluted in drug buffer (0.5% BSA, 10% DMSO and TME) and then 25 μl were added to a deep well polypropylene plate. [3H] SR141716A was diluted in a ligand buffer (0.5% BSA plus TME) and 25 μl were added to the plate. A BCA protein assay was used to determine the appropriate tissue concentration and then 200 μl of rat brain tissue at the appropriate concentration was added to the plate. […] In the morning the filters were counted on a Wallac Betaplate™ counter (available from PerkinElmer Life Sciences™, Boston, Mass.).

T1 sequence (P20272 whole entry): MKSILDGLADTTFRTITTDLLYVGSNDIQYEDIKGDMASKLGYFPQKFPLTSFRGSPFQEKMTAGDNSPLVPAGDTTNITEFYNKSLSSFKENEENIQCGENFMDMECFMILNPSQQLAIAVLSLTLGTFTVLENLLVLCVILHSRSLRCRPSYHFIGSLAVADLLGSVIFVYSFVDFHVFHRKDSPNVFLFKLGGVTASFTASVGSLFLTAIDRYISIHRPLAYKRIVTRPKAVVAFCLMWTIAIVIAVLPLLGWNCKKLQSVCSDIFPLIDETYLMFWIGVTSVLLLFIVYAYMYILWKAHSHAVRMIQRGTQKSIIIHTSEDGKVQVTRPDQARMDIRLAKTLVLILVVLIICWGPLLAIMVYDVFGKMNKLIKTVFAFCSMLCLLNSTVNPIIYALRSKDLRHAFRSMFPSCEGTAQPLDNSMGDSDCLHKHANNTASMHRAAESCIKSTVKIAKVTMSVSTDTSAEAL

- binding affinity: 371 nM
Structure (SMILES): Cc1c(-c2ncn(C)c2-c2ccccc2)nn(-c2ccccc2Cl)c1-c1ccc(Cl)cc1 [Example 1B-13, 5-(4-Chloro-phenyl)-1-(2-chloro-phenyl)-4-methyl-3-(1-methyl-5-phenyl-1H-imidazol-4-yl)-1H-pyrazole]
